The source of these data is ChEMBL document CHEMBL5528048, “Discovery of Novel Potent and Fast BTK PROTACs for the Treatment of Osteoclasts-Related Inflammatory Diseases” (J Med Chem, 2024).

Activity calls are given as the source filed them. The calls are words filed in the database; no cut-off is given here.

The target in data set [1] is T1, Protein cereblon/Tyrosine-protein kinase BTK (Homo sapiens, UniProt Q06187+Q96SW2). As to the kind of experiment: PROTAC activity at BTK/CRBN in human MINO cells assessed as BTK protein degradation at 100 nM measured after 24 hrs by Western blotting analysis relative to control. Format: cell-based. For orientation: Immunoblotting shows a protein as a band on a membrane.
Target sequence in this assay (Q06187 2-659 limits assumed): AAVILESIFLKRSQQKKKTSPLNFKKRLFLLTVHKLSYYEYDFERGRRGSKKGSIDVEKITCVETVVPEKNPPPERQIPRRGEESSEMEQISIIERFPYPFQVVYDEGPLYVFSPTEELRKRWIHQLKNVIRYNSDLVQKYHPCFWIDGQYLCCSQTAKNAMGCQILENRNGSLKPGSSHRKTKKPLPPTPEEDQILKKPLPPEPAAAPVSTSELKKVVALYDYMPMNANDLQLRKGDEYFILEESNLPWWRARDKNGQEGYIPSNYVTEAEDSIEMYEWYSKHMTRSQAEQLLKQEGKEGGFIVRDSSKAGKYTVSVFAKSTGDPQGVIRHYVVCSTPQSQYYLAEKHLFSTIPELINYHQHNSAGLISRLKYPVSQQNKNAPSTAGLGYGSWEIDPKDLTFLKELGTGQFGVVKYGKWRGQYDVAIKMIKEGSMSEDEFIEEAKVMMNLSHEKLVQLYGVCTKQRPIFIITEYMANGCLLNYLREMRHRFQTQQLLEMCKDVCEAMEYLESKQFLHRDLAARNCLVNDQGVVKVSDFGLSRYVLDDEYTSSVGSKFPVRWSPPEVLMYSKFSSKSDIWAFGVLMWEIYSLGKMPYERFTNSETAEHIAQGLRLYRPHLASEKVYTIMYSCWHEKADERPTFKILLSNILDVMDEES
Target sequence in this assay (Q96SW2 whole entry partner): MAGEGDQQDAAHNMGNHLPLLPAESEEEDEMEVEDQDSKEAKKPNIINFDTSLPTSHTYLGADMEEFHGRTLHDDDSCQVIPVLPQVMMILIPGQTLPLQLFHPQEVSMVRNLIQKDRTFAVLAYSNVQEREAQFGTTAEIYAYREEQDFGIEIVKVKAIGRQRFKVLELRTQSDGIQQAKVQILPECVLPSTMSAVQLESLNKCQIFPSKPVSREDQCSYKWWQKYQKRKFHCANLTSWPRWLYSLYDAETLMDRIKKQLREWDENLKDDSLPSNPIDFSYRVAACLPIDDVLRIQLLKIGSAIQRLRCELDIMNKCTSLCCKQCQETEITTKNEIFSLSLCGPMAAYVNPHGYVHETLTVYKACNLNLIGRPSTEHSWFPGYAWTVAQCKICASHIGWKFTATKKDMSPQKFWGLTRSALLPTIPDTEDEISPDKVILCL

In data set [2] the target is T1, Protein cereblon/Tyrosine-protein kinase BTK. As to the kind of experiment: PROTAC activity at BTK/CRBN in human MINO cells assessed as BTK protein degradation at 20 nM measured after 24 hrs by Western blotting analysis relative to control. Format: cell-based.
Target sequence in this assay (Q06187 2-659 limits assumed): as the sequence (Q06187 2-659 limits assumed) above
Target sequence in this assay (Q96SW2 whole entry partner): as the sequence (Q96SW2 whole entry partner) above
For data set [3] the target is unchanged. Nature of the data set: PROTAC activity at BTK/CRBN in human MINO cells assessed as BTK protein degradation at 20 nM by Western blotting analysis. Format: cell-based. The note with it: time lower 2.0 hrs, time upper […], TDE = time-dependent effect.
Target sequence in this assay (Q06187 2-659 limits assumed): as the sequence (Q06187 2-659 limits assumed) above
Target sequence in this assay (Q96SW2 whole entry partner): as the sequence (Q96SW2 whole entry partner) above
Data set [4] shares this target. As to the kind of experiment: PROTAC activity at BTK/CRBN in human MINO cells assessed as BTK protein degradation at 20 nM measured after 4 to 8 hrs by Western blotting analysis. Format: cell-based. The note with it: time 4-8 hrs.
Target sequence in this assay (Q06187 2-659 limits assumed): as the sequence (Q06187 2-659 limits assumed) above
Target sequence in this assay (Q96SW2 whole entry partner): as the sequence (Q96SW2 whole entry partner) above
For data set [5] the target is unchanged. As to the kind of experiment: PROTAC activity at BTK/CRBN in human MINO cells assessed as BTK protein degradation half life at 20 nM by Western blotting analysis. Format: cell-based.
Target sequence in this assay (Q06187 2-659 limits assumed): as the sequence (Q06187 2-659 limits assumed) above
Target sequence in this assay (Q96SW2 whole entry partner): as the sequence (Q96SW2 whole entry partner) above
For data set [6] the target is unchanged. As to the kind of experiment: PROTAC activity at BTK/CRBN in human MINO cells assessed as BTK protein degradation measured for 4 hrs by Western blotting analysis. Format: cell-based.
Target sequence in this assay (Q06187 whole entry): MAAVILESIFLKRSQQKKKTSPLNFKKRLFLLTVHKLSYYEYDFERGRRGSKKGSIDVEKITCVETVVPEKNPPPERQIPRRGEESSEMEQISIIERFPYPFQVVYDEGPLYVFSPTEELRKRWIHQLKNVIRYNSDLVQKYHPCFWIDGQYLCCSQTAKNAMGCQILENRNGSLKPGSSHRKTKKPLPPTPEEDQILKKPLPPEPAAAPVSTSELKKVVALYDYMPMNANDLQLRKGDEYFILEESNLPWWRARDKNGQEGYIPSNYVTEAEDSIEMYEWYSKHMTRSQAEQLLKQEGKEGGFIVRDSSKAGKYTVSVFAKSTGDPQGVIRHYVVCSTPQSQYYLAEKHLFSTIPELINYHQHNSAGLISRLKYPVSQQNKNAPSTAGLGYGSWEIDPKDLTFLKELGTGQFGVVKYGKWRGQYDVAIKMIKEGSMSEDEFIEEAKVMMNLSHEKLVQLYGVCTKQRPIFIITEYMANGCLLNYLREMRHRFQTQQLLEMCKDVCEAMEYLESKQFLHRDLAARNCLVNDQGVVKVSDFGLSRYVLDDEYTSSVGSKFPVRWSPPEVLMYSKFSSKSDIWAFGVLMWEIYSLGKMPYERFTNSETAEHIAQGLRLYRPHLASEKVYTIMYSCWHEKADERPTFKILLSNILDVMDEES
Target sequence in this assay (Q96SW2 whole entry): as the sequence (Q96SW2 whole entry partner) above
Data set [7] shares this target. Nature of the data set: PROTAC activity at BTK/CRBN in human MINO cells assessed as BTK protein degradation by measuring onset time activity at 20 nM by Western blotting analysis. Format: cell-based.
Target sequence in this assay (Q06187 2-659 limits assumed): as the sequence (Q06187 2-659 limits assumed) above
Target sequence in this assay (Q96SW2 whole entry partner): as the sequence (Q96SW2 whole entry partner) above
A short description of data set [8]: AUC (0 to t) in Sprague-Dawley rat at 4 mg/kg, ip measured upto 48 hrs. Format: ADME, organism-based. The note with it: in vivo.
A short description of data set [9]: AUC (0 to infinity) in Sprague-Dawley rat at 4 mg/kg, ip measured upto 48 hrs. Format: ADME, organism-based. As to conditions: in vivo.
Data set [10] in a line: Cmax in Sprague-Dawley rat at 4 mg/kg, ip measured upto 48 hrs. Format: ADME, organism-based. The note with it: in vivo.

As for `Cc1cc(-c2nc(Nc3ccn(C4CN(CC5CCN(c6ccc7c(c6)C(=O)N(C6CCC(=O)NC6=O)C7=O)CC5)C4)n3)ncc2F)ccc1CNC(=O)c1noc(C(C)(C)C)n1` (stereo not given), the Activity was 99% in data set [1] and 78% in [2]. `O=C1CCC(N2C(=O)c3ccc(N4CC(CN5CCN(c6ccc(Nc7ncc(F)c(N8CCC[C@@H](N9CCOC9=O)C8)n7)cc6)CC5)C4)cc3C2=O)C(=O)N1` (stereo not given in full): the Activity in data set [1] was less than 10%. In the case of `Cc1cc(-c2nc(Nc3cnn(C4CCN(CC5CCN(c6ccc7c(c6)C(=O)N(C6CCC(=O)NC6=O)C7=O)CC5)CC4)c3)ncc2F)ccc1CNC(=O)N1CC(OC(C)C)C1` (stereo not given), the Activity amounted to 95% in data set [1] and 80% in data set [2]. Take `Cc1cc(-c2nc(Nc3cnn(C4CCN(CC5CCN(c6ccc(C7CCC(=O)NC7=O)cc6F)CC5)CC4)c3)ncc2F)ccc1CNC(=O)c1cn(C(C)(C)C)nn1` (stereo not given): in [1], the Activity is 57%.

Turning to `C#CC(=O)Nc1cccc(Nc2nc(Nc3ccc(N4CCN(C5CN(c6ccc7c(c6)C(=O)N(C6CCC(=O)NC6=O)C7=O)C5)CC4)cc3)ncc2F)c1` (stereo not given), the Activity in data set [1] stood at 54%.

On to `Cc1cc(-c2nc(Nc3ccn(C4CN(CC5CCN(c6ccc7c(c6)C(=O)N(C6CCC(=O)NC6=O)C7=O)CC5)C4)n3)ncc2F)ccc1CNC(=O)c1nc(C(C)(C)C)no1` (stereo not given), for which the Activity in data set [1] was 99%; in data set [2] it was 96%. On to `O=C1CCC(N2C(=O)c3ccc(N4CCC(CN5CCN(c6ccc(Nc7ncc(F)c(N8CCC[C@@H](N9CCOC9=O)C8)n7)cc6)CC5)CC4)cc3C2=O)C(=O)N1` (stereo not given in full), for which the Activity in [1] worked out at 39%. For `Cc1cc(-c2nc(Nc3ccn(C4CCN(CC5CCN(c6ccc7c(c6)C(=O)N(C6CCC(=O)NC6=O)C7=O)CC5)CC4)n3)ncc2F)ccc1CNC(=O)c1cnc(C(C)(C)C)s1` (stereo not given), the Activity amounted to 16% in [1] and 0% in [2]. On to `CN1CCN([C@@H]2CCCN(c3nc(Nc4ccc(N5CCN(CC6CN(c7ccc8c(c7)C(=O)N(C7CCC(=O)NC7=O)C8=O)C6)CC5)cc4)ncc3F)C2)C1=O` (stereo not given in full), for which, in [1], the Activity was less than 10%. On the same count and under the same terms, with `O=C1CCC(N2C(=O)c3ccc(N4CC(CN5CCN(c6ccc(Nc7ncc(F)c(N8CCC(CO)CC8)n7)cc6)CC5)C4)cc3C2=O)C(=O)N1` (stereo not given) the figure was less than 10%. As to `Cc1cc(-c2nc(Nc3ccn(C4CCN(CC5CCN(c6ccc7c(c6)C(=O)N(C6CCC(=O)NC6=O)C7=O)CC5)CC4)n3)ncc2F)ccc1CNC(=O)c1noc(C2CC2)n1` (stereo not given), the figures for the Activity in data set [1] and in data set [2] were 63% and 0%, respectively. Turning to `Cn1cc(Nc2nc(Nc3ccc(N4CCN(CC5CN(c6ccc7c(c6)C(=O)N(C6CCC(=O)NC6=O)C7=O)C5)CC4)cc3)ncc2F)cn1` (stereo not given), in [1], the Activity is 11%. As to `O=C1CCC(N2C(=O)c3ccc(N4CCC(CN5CCC(C#Cc6ccc(Nc7ncc(F)c(N8CCC(CO)CC8)n7)cn6)CC5)CC4)cc3C2=O)C(=O)N1` (stereo not given), in [1], the Activity is 35%. The DC50 is the concentration giving 50% degradation. Turning to `Cc1cc(-c2nc(Nc3ccn(C4CCN(CC5CCN(c6ccc7c(c6)C(=O)N(C6CCC(=O)NC6=O)C7=O)CC5)CC4)n3)ncc2F)ccc1CNC(=O)c1noc(C(C)(C)C)n1` (stereo not given), the Activity is 99% in data set [1], 98% in data set [2] and “Tde” in data set [3]. Also, in data set [4], the outcome was Active. Moreover, in data set [5], the T1/2 turned out to be 1.1 h. Further, the 50% degradation concentration (DC50) in [6] worked out at 10.3 nM. Turning to `C=CC(=O)Nc1cccc(Nc2nc(Nc3ccc(N4CCN(CC5CCN(c6ccc7c(c6)C(=O)N(C6CCC(=O)NC6=O)C7=O)CC5)CC4)cc3)ncc2F)c1` (stereo not given), in [1], the Activity was found to be 28%.

Turning to `NC(=O)c1ncc(N2CCCCC2)nc1Nc1ccc(C2CCN(C[C@@H]3CCN(c4ccc5c(c4)C(=O)N(C4CCC(=O)NC4=O)C5=O)C3)CC2)cc1` (stereo not given in full), the Activity in data set [1] was 99%; in data set [2], 96%. In addition, in data set [7], the TIME was less than 1 h. Moreover, in data set [5], the T1/2 was found to be 1.25 h. Besides, the DC50 in [6] was 4.86 nM. As to `Cc1cc(-c2nc(Nc3cnn(C4CCN(CC5CCN(c6ccc7c(c6)C(=O)N(C6CCC(=O)NC6=O)C7=O)CC5)CC4)c3)ncc2F)ccc1CNC(=O)c1ccc(C(C)(C)C)cc1` (stereo not given), the Activity in data set [1] worked out at 49%; in data set [2], 0%. Consider `Cc1cc(-c2nc(Nc3cnn(C4CCN(CC5CCN(c6ncc(-c7ccc(=O)[nH]n7)cc6F)CC5)CC4)c3)ncc2F)ccc1CNC(=O)c1cn(C(C)(C)C)nn1`, for which the Activity in data set [1] was found to be 48%.

Turning to `Cc1cc(-c2nc(Nc3ccn(C4CN(CC5CCN(c6ccc7c(c6)C(=O)N(C6CCC(=O)NC6=O)C7=O)CC5)C4)n3)ncc2F)ccc1CNC(=O)c1cnc(C(C)(C)C)s1` (stereo not given), the figures for the Activity in data set [1] and in data set [2] were 95% and 75%, respectively.

Consider `Cc1cc(-c2nc(Nc3ccn(C4CCN(CC5CCN(c6ccc7c(c6)C(=O)N(C6CCC(=O)NC6=O)C7=O)CC5)CC4)n3)ncc2F)ccc1CNC(=O)c1nc(C(C)(C)C)no1` (stereo not given), for which the Activity in data set [1] and in data set [2] was 99% each time. `O=C(/C=C/C(F)(F)F)Nc1cccc(Nc2nc(Nc3ccc(N4CCN(C5CN(c6ccc7c(c6)C(=O)N(C6CCC(=O)NC6=O)C7=O)C5)CC4)cc3)ncc2F)c1` (stereo not given): the Activity in data set [1] was 26%.

Regarding `Cc1cc(-c2nc(Nc3cnn(C4CN(CC5CCN(c6ccc7c(c6)C(=O)N(C6CCC(=O)NC6=O)C7=O)CC5)C4)c3)ncc2F)ccc1CNC(=O)c1ccc(C(C)(C)C)cc1` (stereo not given), the Activity in data set [1] is 29%; in [2], 0%.

In the case of `Cc1cc(-c2nc(Nc3cnn(C4CCN(C(=O)CCC(=O)N[C@@H](C)C(=O)N[C@H]5CCC(=O)NC5=O)CC4)c3)ncc2F)ccc1CNC(=O)c1cn(C(C)(C)C)nn1`, the Activity in data set [1] is 32%. Same read-out and setting: the result for `CC#CC(=O)Nc1cccc(Nc2nc(Nc3ccc(N4CCN(C5CN(c6ccc7c(c6)C(=O)N(C6CCC(=O)NC6=O)C7=O)C5)CC4)cc3)ncc2F)c1` (stereo not given) reads 70%; that for `C=CC(=O)Nc1cccc(Nc2nc(Nc3ccc(N4CCN(C5CN(c6ccc7c(c6)C(=O)N(C6CCC(=O)NC6=O)C7=O)C5)CC4)cc3)ncc2F)c1` (stereo not given), less than 10%. Take `Cc1cc(-c2nc(Nc3cnn(C4CN(CC5CCN(c6ccc7c(c6)C(=O)N(C6CCC(=O)NC6=O)C7=O)CC5)C4)c3)ncc2F)ccc1CNC(=O)c1cn(C(C)(C)C)nn1` (stereo not given): the values for the Activity in data set [1], in data set [2] and in data set [3] were 99%, 99% and “Tde”, respectively. Moreover, the result in data set [4] was Active. Further, the TIME in [7] is less than 0.5 h. Further, in [5], the T1/2 came out at 0.71 h. Also, in data set [6], the DC50 is 2.49 nM. Consider `O=C1CCC(N2C(=O)c3ccc(N4CC(CN5CCN(c6ccc(Nc7ncc(F)c(N8CCC(CO)CC8)n7)cn6)CC5)C4)cc3C2=O)C(=O)N1` (stereo not given), for which the Activity in data set [1] was less than 10%.

Consider `O=C1CCC(N2C(=O)c3ccc(N4CC(CN5CCC(C#Cc6ccc(Nc7ncc(F)c(N8CCC(CO)CC8)n7)cn6)CC5)C4)cc3C2=O)C(=O)N1` (stereo not given), for which the Activity in [1] was determined as 20%. For the compound `Cc1cc(-c2nc(Nc3ccn(C4CN(CC5CCN(c6ccc7c(c6)C(=O)N(C6CCC(=O)NC6=O)C7=O)CC5)C4)n3)ncc2F)ccc1CNC(=O)c1cn(C2CC2)nn1` (stereo not given), the Activity in data set [1] was 97%; in data set [2], 92%. Take `O=C1CCC(N2C(=O)c3ccc(N4CCC(N5CCN(c6ccc(Nc7ncc(F)c(N8CCC(CO)CC8)n7)cc6)CC5)CC4)cc3C2=O)C(=O)N1` (stereo not given): the Activity in [1] is less than 10%. With `O=C1CCC(N2C(=O)c3ccc(N4CCC(CN5CCN(c6ccc(Nc7ncc(F)c(N8CCC(CO)CC8)n7)cc6)CC5)CC4)cc3C2=O)C(=O)N1` (stereo not given), the Activity in data set [1] is 25%. The same measure, in the same setting: the result for `CN1CCN([C@@H]2CCCN(c3nc(Nc4ccc(N5CCN(CC6CCN(c7ccc8c(c7)C(=O)N(C7CCC(=O)NC7=O)C8=O)CC6)CC5)cc4)ncc3F)C2)C1=O` (stereo not given in full) reads 30%; that for `O=C1CCC(N2C(=O)c3ccc(N4CC(CN5CCN(c6ccc(Nc7ncc(F)c(-n8cccn8)n7)cc6)CC5)C4)cc3C2=O)C(=O)N1` (stereo not given), less than 10%. Usually AUC(0-t) stands for exposure summed from dosing to a finite time, without extrapolation to infinity. One may read the AUC(0-inf) as the area under the concentration-time curve extrapolated to infinity. A higher AUC(0-inf) goes with high exposure. What is called Cmax is the peak of the concentration-time curve. Take `C=CC(=O)N1CCC[C@@H](n2nc(-c3ccc(Oc4ccccc4)cc3)c3c(N)ncnc32)C1` [IBRUTINIB]: in data set [8], the AUC(0-t) at 48 h is 11200 ng·h/mL. For the same compound, the AUC(0-inf) in data set [9] was 11700 ng·h/mL. For the same compound, in data set [10], the Cmax turned out to be 3460 ng/mL. For the compound `Cc1cc(-c2nc(Nc3ccn(C4CCN(CC5CCN(c6ccc7c(c6)C(=O)N(C6CCC(=O)NC6=O)C7=O)CC5)CC4)n3)ncc2F)ccc1CNC(=O)c1cn(C2CC2)nn1` (stereo not given), the Activity is 21% in [1], 99% in [2] and “Tde” in data set [3].

Regarding `O=C1CCC(N2C(=O)c3ccc(N4CCC(CN5CCN(c6ccc(Nc7ncc(F)c(N8CCC(CO)CC8)n7)cn6)CC5)CC4)cc3C2=O)C(=O)N1` (stereo not given), the Activity in [1] worked out at 20%.
